Results on 18 compounds are retold here after patent US20240252506A1 (Hoffmann-La Roche Inc., priority 2021, published 2024).

Each structure is given as a SMILES string. Values after ≈ are worked out from the molar mass of the structure shown.

One test relates to Escherichia coli ATCC 25922. Kind of test: Minimal Inhibitory Concentration (MIC) determination, broth microdilution (CLSI M07-A10). It counts as cell-based. The following applies: Escherichia coli, ATCC25922, strain Escherichia coli ATCC 25922, 18-24 hours at 35±2° C., lowest concentration for complete growth inhibition (no visible growth), read-out: Escherichia coli growth inhibition MIC. The protocol: Minimal Inhibitory Concentration (MIC) Determination:
The MIC of antibacterial compounds against multiple species and strains was determined using the broth microdilution method according to M07-A10 Clinical and Laboratory Standards Institute (CLSI) guidelines, using the appropriate broth medium. In short, the compound plates were prepared by dispensing 100 μL of each stock solution in the first well of a 96 well microtiter plate (MTP) at a concentration 100-fold higher than the final concentration desired in broth. Eleven serial 2-fold dilutions of the highest concentration were made in DMSO for new compounds and in water (or appropriate solution) for reference compounds [2]. 1 μL of each well was transferred in a new MTP, which served as the test plate by subsequent inoculation. This bacterial suspension was prepared from strains that were first sub-cultured on agar plates and incubated for 18-24 hours as appropriate. Following incubation, the inoculum was prepared from isolated colonies and adjusted to 0.5 McFarland turbidity standard (1 to 2×10^8 Colony Forming Units (CFU)/mL) in 0.9% saline. The bacterial suspension was then diluted 1:200 in appropriate sterile medium and within 15 minutes 100 μL/well were dispensed. Negative controls (lack of bacterial cells) and growth control wells (lack of compound) were included in all plates. MTPs were incubated for 18-24 hours at 35±2° C. in ambient air. The MIC value of each compound, expressed as μg/mL, was determined as the lowest concentration required for complete growth inhibition (no visible growth). • [1] CLSI (2015) Methods for dilution antimicrobial susceptibility tests for bacteria that grow aerobically; Approved Standard, Tenth Edition. CLSI Document M7-A10 (ISBN 1-56238-987-4). Wayne, PA: Clinical and Laboratory Standards Institute, 19087, USA. • [2] CLSI (2017) Performance Standards for Antimicrobial Susceptibility Testing; Twenty-Fifth Informational Supplement. CLSI Document M100-S27, CLSI, Wayne, Pennsylvania 19087, USA.
Table 1 provides the Minimal Inhibitory Concentrations (MIC) in micrograms per millilitre of the compounds of present invention obtained against the strain Escherichia coli ATCC 25922.
(In broth dilution the organism is exposed to a series of concentrations in liquid medium.)
With `CNCc1nc2cc3c(c(F)c2[nH]1)CC(CN1CCC2(CC1)CN(c1cnc4c(n1)NC(=O)CO4)C(=O)O2)C3` (single isomer, unassigned) [Example 59, 6-[8-[[8-Fluoro-2-(methylaminomethyl)-1,5,6,7-tetrahydrocyclopenta[f]benzimidazol-6-yl]methyl]-2-oxo-1-oxa-3,8-diazaspiro[4.5]decan-3-yl]-4H-pyrazino[2,3-b][1,4]oxazin-3-one], the minimal inhibitory concentration (MIC) amounted to 0.125 µg/mL (≈ 0.233 µM).

For `CNC(CO)c1nc2c(F)c3c(c(F)c2[nH]1)CC(CN1CCC2(CC1)CN(c1cnc4c(n1)NC(=O)CO4)C(=O)O2)C3` (single isomer, unassigned) [Example 66, 6-[8-[[4,8-Difluoro-2-[2-hydroxy-1-(methylamino)ethyl]-3,5,6,7-tetrahydrocyclopenta[f]benzimidazol-6-yl]methyl]-2-oxo-1-oxa-3,8-diazaspiro[4.5]decan-3-yl]-4H-pyrazino[2,3-b][1,4]oxazin-3-one], the MIC is 0.25 µg/mL (≈ 0.428 µM).

With `CNCc1nc2cc3c(c(F)c2o1)CC(CN1CCC2(CC1)CN(c1cnc4c(n1)NC(=O)CO4)C(=O)O2)C3` (single isomer, unassigned) [Example 95, 6-[8-[[8-fluoro-2-(methylaminomethyl)-6,7-dihydro-5H-cyclopenta[f][1,3]benzoxazol-6-yl]methyl]-2-keto-1-oxa-3,8-diazaspiro[4.5]decan-3-yl]-4H-pyrazino[2,3-b][1,4]oxazin-3-one], the minimum inhibitory concentration (MIC) was determined as 0.25 µg/mL (≈ 0.465 µM).

In the case of `O=C1COc2ncc(N3CC4(CCN(CC5Cc6cc7nc(CN8CC(O)C8)oc7c(F)c6C5)CC4)OC3=O)nc2N1` (single isomer, unassigned) [Example 98, 6-[8-[[8-fluoro-2-[(3-hydroxyazetidin-1-yl)methyl]-6,7-dihydro-5H-cyclopenta[f][1,3]benzoxazol-6-yl]methyl]-2-oxo-1-oxa-3,8-diazaspiro[4.5]decan-3-yl]-4H-pyrazino[2,3-b][1,4]oxazin-3-one], the MIC amounted to 0.5 µg/mL (≈ 0.863 µM).

With `O=C1COc2ncc(N3CC4(CCN(CC5Cc6cc7nc(C8CNC8)oc7c(F)c6C5)CC4)OC3=O)nc2N1` (single isomer, unassigned) [Example 100, 6-[2-oxo-8-[[2-(azetidin-3-yl)-8-fluoro-6,7-dihydro-5H-cyclopenta[f][1,3]benzoxazol-6-yl]methyl]-1-oxa-3,8-diazaspiro[4.5]decan-3-yl]-4H-pyrazino[2,3-b][1,4]oxazin-3-one], the MIC is 0.125 µg/mL (≈ 0.227 µM).

As to `NCc1nc2cc3c(c(F)c2o1)CC(CN1CCC2(CC1)CN(c1cnc4c(n1)NC(=O)CO4)C(=O)O2)C3` (single isomer, unassigned) [Example 104, 6-[2-oxo-8-[[2-(aminomethyl)-8-fluoro-6,7-dihydro-5H-cyclopenta[f][1,3]benzoxazol-6-yl]methyl]-1-oxa-3,8-diazaspiro[4.5]decan-3-yl]-4H-pyrazino[2,3-b][1,4]oxazin-3-one], the MIC stood at 0.125 µg/mL (≈ 0.239 µM).

The test is the same for the next values; noted with them: strain Escherichia coli ATCC 25922, 18-24 hours at 35±2° C., lowest concentration for complete growth inhibition (no visible growth).
On to `CNC(CO)c1nc2c(F)c3c(c(F)c2[nH]1)CC(CN1CCC2(CC1)CN(c1cnc4c(n1)NC(=O)CO4)C(=O)O2)C3` (single isomer, unassigned) [Example 67, 6-[8-[[4,8-Difluoro-2-[2-hydroxy-1-(methylamino)ethyl]-3,5,6,7-tetrahydrocyclopenta[f]benzimidazol-6-yl]methyl]-2-oxo-1-oxa-3,8-diazaspiro[4.5]decan-3-yl]-4H-pyrazino[2,3-b][1,4]oxazin-3-one], for which the “Escherichia coli growth inhibition MIC” value amounted to 0.25 µg/mL.

As to `NCCn1nnc2cc3c(c(F)c21)CC(CN1CCC2(CC1)CN(c1cnc4c(n1)NC(=O)CO4)C(=O)O2)C3` (single isomer, unassigned) [Example 81, 6-[2-oxo-8-[[1-(2-aminoethyl)-8-fluoro-6,7-dihydro-5H-cyclopenta[f]benzotriazol-6-yl]methyl]-1-oxa-3,8-diazaspiro[4.5]decan-3-yl]-4H-pyrazino[2,3-b][1,4]oxazin-3-one], the “Escherichia coli growth inhibition MIC” value is at most 0.06 µg/mL.

Consider `NCCn1nnc2cc3c(c(F)c21)CC(CN1CCC2(CC1)CN(c1cnc4c(n1)NC(=O)CO4)C(=O)O2)C3` (single isomer, unassigned) [Example 82, 6-[2-oxo-8-[[1-(2-aminoethyl)-8-fluoro-6,7-dihydro-5H-cyclopenta[f]benzotriazol-6-yl]methyl]-1-oxa-3,8-diazaspiro[4.5]decan-3-yl]-4H-pyrazino[2,3-b][1,4]oxazin-3-one], for which the “Escherichia coli growth inhibition MIC” value amounted to 0.125 µg/mL.

Regarding `CNCCn1nc2cc(F)c3c(c2n1)CC(CN1CCC2(CC1)CN(c1cnc4c(n1)NC(=O)CO4)C(=O)O2)C3` (single isomer, unassigned) [Example 86, 6-[8-[[5-fluoro-2-[2-(methylamino)ethyl]-7.8-dihydro-6H-cyclopenta[e]benzotriazol-7-yl]methyl]-2-oxo-1-oxa-3,8-diazaspiro[4.5]decan-3-yl]-4H-pyrazino[2,3-b][1,4]oxazin-3-one], the “Escherichia coli growth inhibition MIC” value was at most 0.06 µg/mL.

`CNCCn1nc2cc(F)c3c(c2n1)CC(CN1CCC2(CC1)CN(c1cnc4c(n1)NC(=O)CO4)C(=O)O2)C3` (single isomer, unassigned) [Example 87, 6-[8-[[5-fluoro-2-[2-(methylamino)ethyl]-7,8-dihydro-6H-cyclopenta[e]benzotriazol-7-yl]methyl]-2-oxo-1-oxa-3,8-diazaspiro[4.5]decan-3-yl]-4H-pyrazino[2,3-b][1,4]oxazin-3-one]: the “Escherichia coli growth inhibition MIC” value stood at 0.125 µg/mL.

Consider `C[C@H](N)Cn1nc2cc(F)c3c(c2n1)CC(CN1CCC2(CC1)CN(c1cnc4c(n1)NC(=O)CO4)C(=O)O2)C3` (single isomer, unassigned) [Example 88], for which the “Escherichia coli growth inhibition MIC” value is at most 0.06 µg/mL.

For `C[C@H](N)Cn1nc2cc(F)c3c(c2n1)CC(CN1CCC2(CC1)CN(c1cnc4c(n1)NC(=O)CO4)C(=O)O2)C3` (single isomer, unassigned) [Example 89], the “Escherichia coli growth inhibition MIC” value is 0.125 µg/mL.

Regarding `CNCc1nc2cc3c(c(F)c2o1)CC(CN1CCC2(CC1)CN(c1cnc4c(n1)NC(=O)CO4)C(=O)O2)C3` (single isomer, unassigned) [Example 94, 6-[8-[[8-fluoro-2-(methylaminomethyl)-6,7-dihydro-5H-cyclopenta[f][1,3]benzoxazol-6-yl]methyl]-2-keto-1-oxa-3,8-diazaspiro[4.5]decan-3-yl]-4H-pyrazino[2,3-b][1,4]oxazin-3-one], the “Escherichia coli growth inhibition MIC” value was found to be 0.25 µg/mL.

Take `O=C1COc2ncc(N3CC4(CCN(CC5Cc6cc7nc(CN8CC(O)C8)oc7c(F)c6C5)CC4)OC3=O)nc2N1` (single isomer, unassigned) [Example 99, 6-[8-[[8-fluoro-2-[(3-hydroxyazetidin-1-yl)methyl]-6,7-dihydro-5H-cyclopenta[f][1,3]benzoxazol-6-yl]methyl]-2-oxo-1-oxa-3,8-diazaspiro[4.5]decan-3-yl]-4H-pyrazino[2,3-b][1,4]oxazin-3-one]: the “Escherichia coli growth inhibition MIC” value amounted to 1 µg/mL.

With `O=C1COc2ncc(N3CC4(CCN(CC5Cc6cc7nc(C8CNC8)oc7c(F)c6C5)CC4)OC3=O)nc2N1` (single isomer, unassigned) [Example 101, 6-[2-oxo-8-[[2-(azetidin-3-yl)-8-fluoro-6,7-dihydro-5H-cyclopenta[f][1,3]benzoxazol-6-yl]methyl]-1-oxa-3,8-diazaspiro[4.5]decan-3-yl]-4H-pyrazino[2,3-b][1,4]oxazin-3-one], the “Escherichia coli growth inhibition MIC” value came to 0.25 µg/mL.

As to `NCCc1nc2cc3c(c(F)c2o1)CC(CN1CCC2(CC1)CN(c1cnc4c(n1)NC(=O)CO4)C(=O)O2)C3` (single isomer, unassigned) [Example 102, 6-[8-[[2-(2-aminoethyl)-8-fluoro-6,7-dihydro-5H-cyclopenta[f][1,3]benzoxazol-6-yl]methyl]-2-oxo-1-oxa-3,8-diazaspiro[4.5]decan-3-yl]-4H-pyrazino[2,3-b][1,4]oxazin-3-one], the “Escherichia coli growth inhibition MIC” value turned out to be 0.125 µg/mL.

As for `NCCc1nc2cc3c(c(F)c2o1)CC(CN1CCC2(CC1)CN(c1cnc4c(n1)NC(=O)CO4)C(=O)O2)C3` (single isomer, unassigned) [Example 103, 6-[8-[[2-(2-aminoethyl)-8-fluoro-6,7-dihydro-5H-cyclopenta[f][1,3]benzoxazol-6-yl]methyl]-2-oxo-1-oxa-3,8-diazaspiro[4.5]decan-3-yl]-4H-pyrazino[2,3-b][1,4]oxazin-3-one], the “Escherichia coli growth inhibition MIC” value was at most 0.06 µg/mL.

Broadly, the MIC is the least concentration at which growth counts as inhibited.
